pIC50: −log10 of the molar value. Values joined by “and” are separate entries in the source; they are usually repeats but may differ in a detail not shown here. Identical values can stand only once. Like-named read-outs stand apart in the source and are kept apart here.
Key:
[1] = octanol/water (20 mM TRIS-HCl, pH 7.4), cited from earlier work
[2] = eluent acetonitrile/water 45:55; cited from earlier work
[3] = test system: rat PAIII castration-resistant prostate cancer cells; assay: MicroRNA expression in cultured PAIII cells (TaqMan, DDCt); format: cell-based; details: 6 nM Digitoxin, 24 hours
[4] = test system: IL-6 and CINC1 (rat IL-8 equivalent); assay: Serum IL-6 and CINC1 in rats bearing PAIII tumors; format: in vivo; details: digitoxin 0.03 mg/kg daily for 30 days, serum day 30
[5] = test system: IL-8 secretion from cystic fibrosis lung epithelial IB3-1 cells; details: Homo sapiens, IB3-1, 48 h
[6] = test system: rat PAIII castration resistant prostate cancer cells; assay: EMT mRNA expression in cultured PAIII cells (FPKM); details: 6 nM Digitoxin, 24 hours
PAIII cancer cells = test system: PAIII cancer cells; set-up: species or system Lobund-Wistar rats; details: rat, in vivo
[7] = test system: HeLa cervical cancer cells; details: human
[8] = test system: HeLa cervical cancer cells; assay: cells; details: Homo sapiens, 24 h, read-out: IC50 dose for cell death
[9] = test system: collagen induced arthritis (CIA) mice; details: mouse, in vivo
[10] = test system: TNFa/NFkB signaling pathway; assay: Reverse Phase Protein Microarrays of TNFa/NFkB pathway phosphorylation in IB3-1 cells; format: cell-based, human; details: IC-90 concentrations
Excerpt: Previously published data have implicated a dysfunctional TNFa/NFkB signaling pathway as responsible for the pro-inflammatory phenotype of the CF lung (Eidelman et al, 2001a). […] IC-90 means a concentration of drug that blocks 90% of IL-8 secretion from the IB3-1 cells. […] (See FIG. 1).

[11] = test system: clear cell renal carcinoma metastatic to the brain and spinal cord; details: human, in vivo
[12] = test system: guinea-pig heart Na^+-K^+-ATPase; details: cited from earlier work
[13] = test system: PAIII Castration Resistant Prostate Cancer cells; set-up: species or system Lobund-Wistar rats; details: rat, in vivo
[14] = test system: rat lungs infected with influenza; assay: Cytokines and chemokines in lungs of influenza-infected cotton rats; format: in vivo; details: 3, 10 or 30 microgram/kg ip daily, lung harvested day 4
Protocol: Fifteen standard cotton rats were divided into five groups of three each. […] The rats in the treatment groups were pre-treated on the preceding day with either 3, 10, or 30 micro-g/kg intraperitoneally. […] Each rat was then treated on Day 1 with 100 microliters of Wuhan Strain influenza virus (titer-10^8 TC-IC 50/ml) (IC is […]) by intra-nasal administration to induce lung inflammation.
The rats were sacrificed on the last day 4 hrs after treatment.
Pieces of lung was harvested on day 4 and homogenized in PBS by glass-on-glass homogenizer in 1 gram/ml. Samples are frozen on dry ice, and then transferred to −80° C. for analysis. […] Rodents lack IL-8 and instead have GRO/KC and MIP-2. […] GM-CSF was undetectable in the tissue under any conditions.

[15] = test system: Cystic Fibrosis IB-3 Lung Epithelial Cells; assay: Secretion of proinflammatory mediators from IB-3 cells (ELISA, 24 hours); format: cell-based; details: Homo sapiens, Epithelial cell
[16] = test system: Human castration-resistant prostate cancer PC3 cells; assay: EMT protein expression in PC3 cells (Western blot); format: cell-based; details: 24 hours, vehicle 100%
[17] = mobile phase: methanol/water 30:70; cited from earlier work
[18] = for 70 kg man, cited from earlier work

C[C@H]1O[C@@H](O[C@H]2[C@@H](O)C[C@H](O[C@H]3[C@@H](O)C[C@H](O[C@H]4CC[C@@]5(C)[C@H](CC[C@@H]6[C@@H]5CC[C@]5(C)[C@@H](C7=CC(=O)OC7)CC[C@]65O)C4)O[C@@H]3C)O[C@@H]2C)C[C@H](O)[C@@H]1O [digitoxin]
P (partition coefficient in octanol/water system) [1]: 670 and 680
P (partition coefficient in octanol/water system) ([1]; listed as Digitoxin): 670.0 ± 105.0
K retentions for reversed-phase high pressure liquid chromatography [2]: 3.34
miR467b DDCt, Digitoxin - Vehicle [3]: 20.10
miR-122 DDCt, Digitoxin - Vehicle [3]: 11.005
miR-291a-3p DDCt, Digitoxin - Vehicle [3]: 19.13
miR-347 DDCt, Digitoxin - Vehicle [3]: 4.34
miR-376a DDCt, Digitoxin - Vehicle [3]: −32.75(↑)
miR-380-3p DDCt, Digitoxin - Vehicle [3]: 16.57
miR-411 DDCt, Digitoxin - Vehicle [3]: 4.61
miR-667 DDCt, Digitoxin - Vehicle [3]: 7.01
miR-670 DDCt, Digitoxin - Vehicle [3]: −12.11(↑)
miR-879 DDCt, Digitoxin - Vehicle [3]: 11.31
Serum Interleukin-6 (IL-6) ([4]; control 47.9 ± 14.1): 37.0 ± 16.9 pg/mL
Serum CINC1/KC (rat IL-8 equivalent) ([4]; control 60.32 ± 20.6): 47.9 ± 14.4 pg/mL
pIC50 ([5]; read-out: IC50 nmol/L in cells): 9.05
pIC50 ([5]; read-out: IC50 (K50) for spontaneous IL-8 secretion): ~9.05
FOXP3 mRNA % change [6]: −30%
Hepatocyte Growth Factor mRNA % change [6]: −50%
Igf2r mRNA % change [6]: −40%
Vimentin mRNA % change [6]: −10%
Zeb2 mRNA % change [6]: −30%
Diameter of metastatic foci, mm, (median) (PAIII cancer cells): 1.76 mm
Number of pleural metastatic foci (median) (PAIII cancer cells): 122
Threshold concentration for an increase in cell death [7]: 70 to 100 nM
pIC50 [8]: ~6.70
Incidence of CIA (mice that developed symptoms) [9]: 50%
Inflammatory focus (pannus-like) in metatarsal-phalangeal joints, histopathology [9]: absent
Mean paw thickness [9]: decreased
Severity of CIA (mean visual score) [9]: significant reduction
Constitutive phosphorylation of IkBalpha and NFkB, p65 [10]: significantly suppressed
Phosphorylation of IKKalpha [10]: modestly suppressed
Clinical outcome of one cancer patient [11]: positive result
ID50 [12]: 0.31 ± 0.03 ×10^−4 mol l^−1
Diameter of metastasis, mm (median) [13]: 0.87 mm
Number of Pleural Metastases (median) [13]: 16
Weight of Primary Tumor, gm (median) [13]: 19.6 gm
GRO/KC in lung [14]: significant reductions
IFNγ in lung [14]: significant reductions
IL-13 in lung [14]: No significant changes
MCP-1 in lung [14]: significant reductions
MIP-2 in lung [14]: significant reductions
TGFβ in lung [14]: No significant changes
TNFa in lung [14]: significant reductions
activity at 0.01 µM ([15]; read-out: ICAM1 secretion, % of Control): 19%
activity at 0.03 µM ([15]; read-out: ICAM1 secretion, % of control): 30%
activity at 0.01 µM ([15]; read-out: IFN-gamma secretion, % of Control): 100%
activity at 0.03 µM ([15]; read-out: IFN-gamma secretion, % of control): 35%
activity at 0.01 µM ([15]; read-out: IL-1-beta secretion, % of Control): 50%
activity at 0.03 µM ([15]; read-out: IL-1-beta secretion, % of control): 50%
activity at 0.01 µM ([15]; read-out: IL-6 secretion, % of Control): 3%
activity at 0.03 µM ([15]; read-out: IL-6 secretion, % of control): 0%
activity at 0.01 µM ([15]; read-out: IL-8 secretion, % of Control): 2%
activity at 0.03 µM ([15]; read-out: IL-8 secretion, % of control): 0%
activity at 0.01 µM ([15]; read-out: IP-10 secretion, % of Control): 100%
activity at 0.03 µM ([15]; read-out: IP-10 secretion, % of control): 100%
activity at 0.01 µM ([15]; read-out: TNFalpha secretion, % of Control): 5%
activity at 0.03 µM ([15]; read-out: TNFalpha secretion, % of control): 0%
E-Cadherin % Band Intensity ([16]; Digitoxin 10 nM): 0%,
SNAI1 % Band Intensity ([16]; Digitoxin 10 nM): 0%,
Vimentin % Band Intensity ([16]; Digitoxin 10 nM): 0%,
E-Cadherin % Band Intensity ([16]; Digitoxin 25 nM): 0%,
SNAI1 % Band Intensity ([16]; Digitoxin 25 nM): 0%,
Vimentin % Band Intensity ([16]; Digitoxin 25 nM): 0%,
RM values (lipophilicity, reversed-phase thin layer chromatography) [17]: 1.37
Human toxicity limit [18]: 3036 nmol
Human toxicity limit, Nmol/L = nM [18]: 45.4 nM
Human toxicity limit ([18]; ouabain value is lethal dose): >2.5 mg

Source: patent US20140187505A1, “Cardiac Glycosides to Treat Cystic Fibrosis and Other IL-8 Dependent Disorders” (priority 2002, published 2014)
